Test results published in article PMC12040169 (PLOS Biology, 2025).

Experiment: in vitro
Conditions: human, hela cells, % viability

Compound	viability at 28.5 h, 10 µM
CCN(CC)C(=O)Cn1nc(C)n2c(cc3sc(C)cc32)c1=O [CBK284064]	96.1%
CCOC(=O)C(C)n1nc(C)n2c(cc3sc(C)cc32)c1=O (stereo not shown) [CBK284066]	76.8%
Cc1cc2c(cc3c(=O)n(CC(=O)NC4CC4)nc(C)n32)s1 [CBK284067]	74.3%
Cc1cc2c(cc3c(=O)n(CC(=O)OC(C)C)nc(C)n32)s1 [CBK284071]	98.6%
CCOC(=O)Cn1nc(CC)n2c(cc3sccc32)c1=O [CBK284073]	80.3%
CCc1nn(Cc2ccccn2)c(=O)c2cc3sccc3n12 [CBK284074]	46.8%
CCc1nn(CCN2CCCC2)c(=O)c2cc3sccc3n12 [CBK284075]	83.5%
CCc1nn(CC(=O)OC(C)C)c(=O)c2cc3sccc3n12 [CBK284076]	75.3%
Cc1nn(CC(=O)N2CCCCC2)c(=O)c2cc3ccsc3n12 [CBK284078]	91%
Cc1nn(CC(=O)NC(C)(C)C)c(=O)c2cc3ccsc3n12 [CBK284082]	83.2%
Cc1nn(CC(=O)N2CCC(C)CC2)c(=O)c2cc3sccc3n12 [CBK284083]	80%
Cc1nn(CC(=O)N2CCCCCC2)c(=O)c2cc3sccc3n12 [CBK284084]	80.4%
Cn1ccnc1C1(O)CC2CCC(C1)N2C(=O)c1ccc(F)cc1 (stereo not shown) [CBK284086]	98.4%
Cn1ccnc1C1(O)CC2CCC(C1)N2C(=O)c1ccc(Cl)cc1 (stereo not shown) [CBK284087]	94.2%
Cn1ccnc1C1(O)CC2CCC(C1)N2C(=O)c1cccs1 (stereo not shown) [CBK284088]	94.2%
CC1CCCN(C(=O)CN2C3CCC2CC(O)(c2ccco2)C3)C1 (stereo not shown) [CBK284095]	98.8%
CCOC(=O)Cn1nc(C)n2c(cc3sc(C)cc32)c1=O [CBK284096]	82.3%
CCc1nn(CC(=O)N(C)C)c(=O)c2cc3sc(C)cc3n12 [CBK284102]	110%
Cc1nn(CC(=O)NC2CCC2)c(=O)c2cc3ccsc3n12 [CBK284103]	103%
COc1ccccc1CC(=O)N1C2CCC1CC(O)(c1ccco1)C2 (stereo not shown) [CBK284106]	88.8%
CO[C@H]1CC[C@H](C(=O)N2C3CCC2CC(O)(c2ccco2)C3)CC1 (stereo partly shown) [CBK284107]	96.7%
CN(C(=O)CN1C2CCC1CC(O)(c1ccco1)C2)C1CCCCC1 (stereo not shown) [CBK284108]	102%
Cc1nn(CC(=O)NC2CCC2)c(=O)c2cc3sccc3n12 [CBK284110]	108%

Compound	viability at 28.5 h, 10 µM
Cc1nn(CC(=O)C(C)(C)C)c(=O)c2cc3sccc3n12 [CBK284111]	87.2%
O=C(C1CC1)N1CCC(Cn2nc(-c3ccccc3)ccc2=O)CC1 [CBK284115]	89.7%
CN(C)C(=O)CN1N=C(C(C)(C)C)Cn2c(cc3sccc32)C1=O [CBK284116]	89.5%
CN(C)c1ccc(C(=O)N2C3CCC2CC(O)(c2ccco2)C3)cc1 (stereo not shown) [CBK284117]	93.3%
Cc1cc2c(cc3c(=O)n(CC(=O)NC4CCC4)nc(C)n32)s1 [CBK284118]	107%
CCc1nn(CC(=O)N2CCCCC2)c(=O)c2cc3ccsc3n12 [CBK284119]	85.7%
CCc1nn(CC(=O)N(CC)CC)c(=O)c2cc3sc(C)cc3n12 [CBK284121]	86.2%
CCOC(=O)C(C)n1nc(CC)n2c(cc3ccsc32)c1=O (stereo not shown) [CBK284127]	103%
CCc1nn(CC(=O)NC2CC2)c(=O)c2cc3ccsc3n12 [CBK284128]	88.6%
CCc1nn(CC(=O)NCC2CC2)c(=O)c2cc3ccsc3n12 [CBK284129]	87.8%
CCc1nn(CC(=O)NC(C)C)c(=O)c2cc3ccsc3n12 [CBK284131]	82.6%
CCc1nn(CC(=O)NC2CCCC2)c(=O)c2cc3ccsc3n12 [CBK284134]	98.4%
COc1ccc(CC(=O)N2C3CCC2CC(O)(c2ccco2)C3)cc1 (stereo not shown) [CBK284137]	92.5%
O=C(Cc1cccc(F)c1)N1C2CCC1CC(O)(c1ccco1)C2 (stereo not shown) [CBK284138]	95.3%
CCCc1nn(CC(=O)NC2CC2)c(=O)c2cc3ccsc3n12 [CBK284146]	85.3%
CCCc1nn(CC(=O)NC(C)C)c(=O)c2cc3ccsc3n12 [CBK284147]	87.5%
CCn1c2cc(C)sc2c2cnn(CCN3CCCC3)c(=O)c21 [CBK284151]	99.7%
Cc1cc2c(s1)c1cnn(CC(=O)N3CCCC3)c(=O)c1n2C [CBK284153]	85.6%
CCOC(=O)C(C)n1ncc2c3sc(C)cc3n(C)c2c1=O (stereo not shown) [CBK284157]	85.9%
Cc1cc2c(s1)c1cnn(CC(=O)NC(C)(C)C)c(=O)c1n2C [CBK284158]	86.6%
O=C(c1nccs1)C1CCN(C(=O)Cc2ccccc2F)CC1 [CBK284161]	87.3%
CC(C(=O)N1CCC(C(=O)c2nccs2)CC1)c1ccccc1 (stereo not shown) [CBK284163]	80.8%
C=CCn1c2cc(C)sc2c2cnn(CC(=O)N(C)C)c(=O)c21 [CBK284164]	83.9%
